Data as given in US9937151B2, “Carbapenem antibacterials with gram-negative activity” (priority 2010, dated 2018).
Values after ≈ are worked out from the molar mass of the structure shown.

System: G(−) bacterial strains
Assay: Dilution antimicrobial susceptibility tests (MIC, NCCLS agar dilution / broth dilution)
Assay type: cell-based, Gram-negative organisms
Details: unit assumed
Experimental: The MIC (minimum inhibitory concentration) was determined by the NCCLS (National Committee for Clinical Laboratory Standards) methods 2000. Methods for dilution antimicrobial susceptibility testing for bacteria that growth aerobically (M7-A5, vol. 20, No. 2). The agar dilution method for determining antimicrobial susceptibility was carried out using Mueller-Hinton agar. A final inoculum of 10^4 CFU/spot was applied with an inoculation device. Broth dilution tests were performed with 5×10^5 CFU/well in 96 well plates. The susceptibilities of streptococci were determined by Mueller-Hinton agar supplemented with 5% sheep blood. All assays were run with the indicated control strains, available from the ATCC (American Type Culture Collection, Rockville, Md.).
Abbreviations used in Table 1 are defined as follows: Cf-R: Ceftazidime Resistance, Ci-R: Ciprofloxacin Resistance, Gen-R: Gentamycin Resistance, Imp-R: Imipenem Resistance, Mp-R: Meropenem Resistance, Ofx-R: Ofloxacin Resistance, B+: β-lactamase Production, AmpC: AmpC-lactamase Hyper production, CBPase: Carbapenemase Production.

[1] = strain #1 Acinetobacter calcoaceticus
[2] = strain #2 Acinetobacter baumannii, Cf-R, Ci-R
[3] = strain #3 Acinetobacter baumannii, Cf-R, Ci-R, Mp-I
[4] = strain #4 Acinetobacter baumannii, Cf-R, Imp-I, CBPase
[5] = strain #7 Enterobacter aerogenes
[6] = strain #8 Enterobacter cloacae, Cf-R, B+
[7] = strain #9 Enterobacter cloacae, Cf-R
[8] = strain #10 Escherichia coli, Ci-R
[9] = strain #11 Escherichia coli, Ci-R, AmpC
[10] = strain #15 Klebsiella pneumoniae
[11] = strain #16 Moraxella catarrhalis
[12] = strain #21 Providencia rettgeri
[13] = strain #22 Salmonella typhimurium
[14] = strain #25 Shigella dysenteriae
[15] = strain #28 Stenotrophomonas maltophilia
[16] = strain #29 Pseudomonas aeruginosa
[17] = strain #30 Pseudomonas aeruginosa
[18] = strain #31 Pseudomonas aeruginosa, Ofx-R
[19] = strain #32 Pseudomonas aeruginosa, Cf-R
[20] = strain #33 Pseudomonas aeruginosa, Ci-R
[21] = strain #34 Pseudomonas aeruginosa, Gen-R
[22] = strain #35 Pseudomonas aeruginosa, Ip-R
[23] = strain #36 Pseudomonas aeruginosa, Cf-R, Ci-R, Mp-R

SMILES | MIC [1] [µg/mL] | MIC [2] [µg/mL] | MIC [3] [µg/mL] | MIC [4] [µg/mL] | MIC (strain #5 Citrobacter diversus) [µg/mL] | MIC (strain #6 Citrobacter freundii) [µg/mL] | MIC [5] [µg/mL] | MIC [6] [µg/mL] | MIC [7] [µg/mL] | MIC [8] [µg/mL] | MIC [9] [µg/mL] | MIC (strain #12 Escherichia coli) [µg/mL] | MIC (strain #13 Escherichia coli) [µg/mL] | MIC (strain #14 Klebsiella oxytoca) [µg/mL] | MIC [10] [µg/mL] | MIC [11] [µg/mL] | MIC (strain #17 Morganella Morganii) [µg/mL] | MIC (strain #18 Morganella Morganii) [µg/mL] | MIC (strain #19 Proteus vulgaris) [µg/mL] | MIC (strain #20 Proteus mirabilis) [µg/mL] | further results
C[C@@H](O)[C@H]1C(=O)N2C(C(=O)O)=C(CN3CC(O)C(NC(=N)N)C3)[C@H](C)[C@H]12 (mixture of isomers) [Compound 176] | 0.13 | 0.5 | 1 | 1 | 0.063 | 0.13 | 0.25 | 0.063 | 0.13 | 0.063 | 0.063 | 0.063 | 0.13 | 0.13 | 0.13 | ≤ 0.008 | 1 | 0.5 | 0.25 | 0.063 | MIC [12]: 0.25 µg/mL; MIC [13]: 0.13 µg/mL; MIC (strain #23 Serratia marcescens): 0.25 µg/mL; MIC (strain #24 Serratia marcescens): 0.25 µg/mL; MIC [14]: 0.13 µg/mL; MIC (strain #26 Shigella sonnei): 0.063 µg/mL; MIC (strain #27 Shigella flexneri): 0.063 µg/mL; MIC [15]: 0.063 µg/mL; MIC [16]: 1 µg/mL; MIC [17]: 1 µg/mL; MIC [18]: 0.5 µg/mL; MIC [19]: 1 µg/mL; MIC [20]: 1 µg/mL; MIC [21]: 1 µg/mL; MIC [22]: 2 µg/mL; MIC [23]: 8 µg/mL
CC(O)C1C(=O)N2C(C(=O)O)=C(CN3CC(O)C(C(=N)N)C3)C(C)C12 (mixture of isomers) [Compound 185b] | 0.13 | 0.5 | 2 | 1 | 0.063 | 0.063 | 0.25 | 0.063 | 0.13 | 0.031 | 0.031 | 0.031 | 0.063 | 0.13 | 0.13 | ≤ 0.008 | 0.5 | 0.5 | 0.25 | 0.063 | MIC [12]: 0.25 µg/mL; MIC [13]: 0.063 µg/mL; MIC (strain #23 Serratia marcescens): 0.13 µg/mL; MIC (strain #24 Serratia marcescens): 0.13 µg/mL; MIC [14]: 0.063 µg/mL; MIC (strain #26 Shigella sonnei): 0.063 µg/mL; MIC (strain #27 Shigella flexneri): 0.063 µg/mL; MIC [15]: 0.13 µg/mL; MIC [16]: 1 µg/mL; MIC [17]: 1 µg/mL; MIC [18]: 0.5 µg/mL; MIC [19]: 1 µg/mL; MIC [20]: 1 µg/mL; MIC [21]: 1 µg/mL; MIC [22]: 4 µg/mL; MIC [23]: 8 µg/mL
C[C@@H](O)C1C(=O)N2C(C(=O)O)=C(CN3CC[C@H](C#N)C3)[C@H](C)C12 (stereo partly drawn) [Compound 7] | 4 (≈ 12.5 µM) | 2 (≈ 6.26 µM) | 4 (≈ 12.5 µM) | 4 (≈ 12.5 µM) | 0.063 (≈ 0.197 µM) | 0.13 (≈ 0.407 µM) | 0.5 (≈ 1.57 µM) | 0.13 (≈ 0.407 µM) | 0.25 (≈ 0.783 µM) | 0.13 (≈ 0.407 µM) | 0.13 (≈ 0.407 µM) | 0.13 (≈ 0.407 µM) | 0.13 (≈ 0.407 µM) | 0.25 (≈ 0.783 µM) | 0.25 (≈ 0.783 µM) | ≤ 0.008 | 1 (≈ 3.13 µM) | 1 (≈ 3.13 µM) | 0.5 (≈ 1.57 µM) | 0.13 (≈ 0.407 µM) | MIC [12]: 0.5 µg/mL (≈ 1.57 µM); MIC [13]: 0.13 µg/mL (≈ 0.407 µM); MIC (strain #23 Serratia marcescens): 0.25 µg/mL (≈ 0.783 µM); MIC (strain #24 Serratia marcescens): 0.5 µg/mL (≈ 1.57 µM); MIC [14]: 0.25 µg/mL (≈ 0.783 µM); MIC (strain #26 Shigella sonnei): 0.13 µg/mL (≈ 0.407 µM); MIC (strain #27 Shigella flexneri): 0.13 µg/mL (≈ 0.407 µM); MIC [15]: 0.5 µg/mL (≈ 1.57 µM); MIC [16]: 16 µg/mL (≈ 50.1 µM); MIC [17]: 8 µg/mL (≈ 25.1 µM); MIC [18]: 2 µg/mL (≈ 6.26 µM); MIC [19]: 8 µg/mL (≈ 25.1 µM); MIC [20]: 8 µg/mL (≈ 25.1 µM); MIC [21]: 8 µg/mL (≈ 25.1 µM); MIC [22]: 32 µg/mL (≈ 100 µM); MIC [23]: > 32 µg/mL
C[C@@H](O)C1C(=O)N2C(C(=O)O)=C(CN3CC[C@H](C(N)=O)C3)[C@H](C)C12 (stereo partly drawn) [Compound 12] | 0.5 (≈ 1.48 µM) | 0.5 (≈ 1.48 µM) | 2 (≈ 5.93 µM) | 1 (≈ 2.96 µM) | 0.13 (≈ 0.385 µM) | 0.25 (≈ 0.741 µM) | 1 (≈ 2.96 µM) | 0.13 (≈ 0.385 µM) | 0.25 (≈ 0.741 µM) | 0.13 (≈ 0.385 µM) | 0.13 (≈ 0.385 µM) | 0.13 (≈ 0.385 µM) | 0.25 (≈ 0.741 µM) | 0.5 (≈ 1.48 µM) | 0.5 (≈ 1.48 µM) | ≤ 0.008 | 2 (≈ 5.93 µM) | 1 (≈ 2.96 µM) | 0.5 (≈ 1.48 µM) | 0.25 (≈ 0.741 µM) | MIC [12]: 1 µg/mL (≈ 2.96 µM); MIC [13]: 0.25 µg/mL (≈ 0.741 µM); MIC (strain #23 Serratia marcescens): 0.5 µg/mL (≈ 1.48 µM); MIC (strain #24 Serratia marcescens): 1 µg/mL (≈ 2.96 µM); MIC [14]: 0.25 µg/mL (≈ 0.741 µM); MIC (strain #26 Shigella sonnei): 0.25 µg/mL (≈ 0.741 µM); MIC (strain #27 Shigella flexneri): 0.25 µg/mL (≈ 0.741 µM); MIC [15]: 0.25 µg/mL (≈ 0.741 µM); MIC [16]: 4 µg/mL (≈ 11.9 µM); MIC [17]: 4 µg/mL (≈ 11.9 µM); MIC [18]: 1 µg/mL (≈ 2.96 µM); MIC [19]: 4 µg/mL (≈ 11.9 µM); MIC [20]: 4 µg/mL (≈ 11.9 µM); MIC [21]: 4 µg/mL (≈ 11.9 µM); MIC [22]: 8 µg/mL (≈ 23.7 µM); MIC [23]: 32 µg/mL (≈ 94.8 µM)
C[C@@H](O)C1C(=O)N2C(C(=O)O)=C(CN3CC[C@H](C(=O)NS(N)(=O)=O)C3)[C@H](C)C12 (stereo partly drawn) [Compound 19] | 0.5 (≈ 1.2 µM) | 0.5 (≈ 1.2 µM) | 2 (≈ 4.8 µM) | 1 (≈ 2.4 µM) | 0.25 (≈ 0.6 µM) | 0.25 (≈ 0.6 µM) | 1 (≈ 2.4 µM) | 0.25 (≈ 0.6 µM) | 0.5 (≈ 1.2 µM) | 0.25 (≈ 0.6 µM) | 0.25 (≈ 0.6 µM) | 0.25 (≈ 0.6 µM) | 0.25 (≈ 0.6 µM) | 0.5 (≈ 1.2 µM) | 0.5 (≈ 1.2 µM) | ≤ 0.008 | 4 (≈ 9.6 µM) | 2 (≈ 4.8 µM) | 1 (≈ 2.4 µM) | 0.25 (≈ 0.6 µM) | MIC [12]: 1 µg/mL (≈ 2.4 µM); MIC [13]: 0.25 µg/mL (≈ 0.6 µM); MIC (strain #23 Serratia marcescens): 1 µg/mL (≈ 2.4 µM); MIC (strain #24 Serratia marcescens): 1 µg/mL (≈ 2.4 µM); MIC [14]: 0.25 µg/mL (≈ 0.6 µM); MIC (strain #26 Shigella sonnei): 0.25 µg/mL (≈ 0.6 µM); MIC (strain #27 Shigella flexneri): 0.25 µg/mL (≈ 0.6 µM); MIC [15]: 0.25 µg/mL (≈ 0.6 µM); MIC [16]: 4 µg/mL (≈ 9.6 µM); MIC [17]: 4 µg/mL (≈ 9.6 µM); MIC [18]: 1 µg/mL (≈ 2.4 µM); MIC [19]: 4 µg/mL (≈ 9.6 µM); MIC [20]: 4 µg/mL (≈ 9.6 µM); MIC [21]: 4 µg/mL (≈ 9.6 µM); MIC [22]: 8 µg/mL (≈ 19.2 µM); MIC [23]: 32 µg/mL (≈ 76.8 µM)
